This note sets out measurements from US12304912B2, “Fused bicyclic RAF inhibitors and methods for use thereof” (Jazz Pharmaceuticals Ireland Limited, priority 2020, dated 2025).

Read-outs that look alike come from different tables or passages of the source.

A short description of series [1]: Microsomal stability assay, mouse liver microsomes (MLM). Particulars: 0.5 mg/mL protein, 1 μM substrate. In kind it is in vitro ADME. In outline: (§1)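 Half-life and CLint come from the ln(% remaining)–time slope, with remaining compound quantified by LC-MS/MS after ice-cold solvent quench of timed samples. Incubations used 1 μM test compound and 0.5 mg·mL^−1 human or mouse liver microsomal protein at 37° C.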
(In general: Liver microsomes are vesicles of endoplasmic reticulum, rich in cytochrome P450 enzymes.)

The nature of series [2]: Microsomal stability assay, human liver microsomes (HLM). In kind it is in vitro ADME. Particulars: 0.5 mg/mL protein, 1 μM substrate. In short, it runs like this:
as §1

The subject of series [3] is BRAF monomers in A375 cells. As to the kind of experiment: A375 AlphaLISA SureFire pERK1/2 cellular assay (monomer). In kind it is cell-based. As to conditions: Homo sapiens, A-375; A375 cells, 1 hr; read-out: pERK A375 (1 hr) pIC50 (converted). In short, it runs like this: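 BRAF^V600E A375 melanoma cells seeded at 30,000/well in DMEM with 10% FBS, dosed without medium exchange in a 10-point series from 10 μM at 1/2-log steps, 1 h at 37 °C. Phospho-ERK1/2 (Thr202/Tyr204) measured in lysates by AlphaLISA SureFire; absolute IC50 relative to DMSO control.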
Background: Alpha assays give light when donor and acceptor beads are brought close together.

Series [4] has as its system constitutive ERK phosphorylation in WiDr cells. As to the kind of experiment: WiDr AlphaLISA SureFire pERK1/2 cellular assay. In kind it is cell-based, human. Particulars: WiDr cells, 2 hr; for IC50: Homo sapiens, read-out: pERK WiDr (2 hr) Abs pIC50 (converted). How it is done: The human HCT-116 colorectal carcinoma cell line (ATCC CCL-247) endogenously expresses the KRAS^G13D mutation, which leads to constitutive activation of the MAP kinase pathway and phosphorylation of ERK. […] Assay read outs took place 2 or 24 hours after dosing with compounds. On the first day, HCT-116 cells were harvested, resuspended in growth medium (McCoys5A with Glutamax (Life Technologies 36600021) and 10% heat-inactivated fetal bovine serum (Sigma F9665)), and counted. Cells were plated in 100 μl per well in each well of a 96-well culture dish (Sigma CLS3598) to a final density of 30,000 (2 hr read) or 15,000 (24 hr read) cells per well and incubated over night at 37° C. and 5% CO2. On day 2, the growth medium was exchanged for dosing medium (McCoys5A with Glutamax (Life Technologies 36600021) and 1% heat-inactivated fetal bovine serum (Sigma F9665)) and the cells were dosed with compounds to produce a 10-point dose response, where the top concentration was 1 μM and subsequent concentrations were at 1/3 log dilution intervals. A matched DMSO control was included. The cells were subsequently incubated for either 2 or 24 hours at 37° C. and 5% CO2. After incubation, media was removed and the cells were incubated with lysis buffer containing phosphatase inhibitors for 15 minutes at room temperature. Cell lysates were transferred to a 12 area 96 well white Optiplate™ (Perkin Elmer 6005569) and incubated with anti-mouse IgG acceptor beads, a biotinylated anti-ERK1/2 rabbit antibody recognizing both phosphorylated and non-phosphorylated ERK1/2, a mouse antibody targeted to the Thr202/Tyr204 epitope and recognizing phosphorylated ERK proteins only, and streptavidin-coated donor beads. The biotinylated antibody binds to the streptavidin-coated donor beads and the phopsho-ERK1/2 antibody binds to the acceptor beads. Plates were read on an EnVision reader (Perkin Elmer) and excitation of the beads at 680 nm with a laser induced the release of singlet oxygen molecules from the donor beads that trigger energy transfer to the acceptor beads in close proximity, producing a signal that can be measured at […]. Both antibodies bound to phosphorylated ERK proteins, bringing the donor and acceptor beads into close proximity. All data were analyzed using the Dotmatics or GraphPad Prism software packages. Inhibition of ERK phosphorylation was assessed by determination of the absolute IC50 value, which is defined as the concentration of compound required to decrease the level of phosphorylated ERK proteins by 50% when compared to DMSO control.
WiDr AlphaLISA SureFire pERK1/2 Cellular Assay
The human WiDr colorectal adenocarcinoma cell line (ATCC CCL-218) endogenously expresses the BRAF^V600E mutation, which leads to constitutive activation of the MAP kinase pathway and phosphorylation of ERK. […] The main procedure is essentially the same as for HCT-116 cells (above), with the following adjustments to the growth medium (Eagle's Minimum Essential Medium (Sigma M2279) with 1× Glutamax (Life Technologies 35050038), 1× Sodium-Pyruvate (Sigma S8636), and 10% heat-inactivated fetal bovine serum (Sigma F9665)), the dosing medium (Eagle's Minimum Essential Medium (Sigma M2279) with 1× Glutamax (Life Technologies 35050038), 1× Sodium-Pyruvate (Sigma S8636), and 1% heat-inactivated fetal bovine serum (Sigma F9665)), and the seeding densities (2 hr: 50,000 cells per well; 24 hr: 35,000 cells per well). Moreover, the compounds were dosed in 1/2 log dilution intervals with the top concentration of 10 μM.

The nature of series [5]: Plasma protein binding assay, mouse plasma (mPPB). In kind it is in vitro ADME. As to conditions: 5 μM. In outline:
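Equilibrium dialysis of 5 μM compound in previously frozen human or mouse plasma against phosphate buffer, 4 h at 37 °C. Both chambers quantified by LC-MS/MS; % free = (1−((PC−PF)/PC))×100.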

[6] abbreviates: equilibrium dialysis 4 hours 37° C.
The mark [7] stands for this setting: equilibrium dialysis 4 hours at 37° C.

By microsomal CLint is commonly meant the capacity of the preparation to metabolise the compound, expressed as a volume cleared per time. As to `O=C1CCc2c(Oc3ccc4c(c3)CC(c3nc5cc(C(F)(F)F)ncc5[nH]3)CO4)ccnc2N1` (racemic) [Compound 32], the microsomal CLint at 1 μM came to 8.3 µL/min/mg in series [1] and 11.3 µL/min/mg in series [2]. Also, the IC50 is 251 nM in series [3] and 204 nM in series [4] (absolute IC50). In series [5] (setting [6]), the “mPPB (% free)” value was 3.2 % free.
For `O=C(Nc1cc(Oc2ccc3c(c2)CC(c2nc(-c4ccccc4)c[nH]2)CO3)ccn1)C1CC1` (racemic) [Compound 136], in series [1] (37° C.), the “MLM (CLint)” value worked out at 277 µL/min/mg. Besides, the intrinsic metabolic clearance (microsomal CLint) at 1 μM in series [2] (37° C.) worked out at 58.1 µL/min/mg. Also, the results for the IC50 in series [3] and in series [4] (Abs) were 162 nM and 66.1 nM, respectively. For the same compound, the “mPPB (% free)” value in series [5] (setting [7]) came out at 0.2 % free.
With `O=C1CCc2c(Oc3ccc4c(c3)CC(c3nc(-c5ccnc(C(F)(F)F)c5)c[nH]3)CO4)ccnc2N1` (stereo not drawn) [Compound 8, 5-[3-[4-[2-(trifluoromethyl)-4-pyridyl]-1H-imidazol-2-yl]chroman-6-yl]oxy-3,4-dihydro-1H-1,8-naphthyridin-2-one], the figures for the intrinsic metabolic clearance (microsomal CLint) at 1 μM in series [1] and in series [2] were 13.9 µL/min/mg and 36 µL/min/mg, respectively. Moreover, the IC50 is 316 nM in series [3] and 178 nM in series [4] (absolute IC50). Moreover, the “pERK WiDr (2 hr) Abs pIC50” value in series [4] (Abs) was 6.75. In addition, the “mPPB (% free)” value in series [5] (setting [6]) and in series [5] (setting [7]) was 1.1 % free each time.
In the case of `O=C1CCc2c(Oc3ccc4c(c3)CC(c3nc(-c5cccc(C(F)(F)F)c5)c[nH]3)CO4)ccnc2N1` (stereo not drawn) [Compound 12, 5-[3-[4-[3-(trifluoromethyl)phenyl]-1H-imidazol-2-yl]chroman-6-yl]oxy-3,4-dihydro-1H-1,8-naphthyridin-2-one], the microsomal CLint at 1 μM in series [1] was found to be 15.7 µL/min/mg; in series [2], 88.6 µL/min/mg. Further, the IC50 was 42.7 nM in series [3] and 123 nM in series [4] (absolute IC50). The “mPPB (% free)” value in series [5] (setting [6]) is below 0.1 % free.
Taken in the same sequence, the figures for `COc1cc(-c2c[nH]c(C3COc4ccc(Oc5ccnc6c5CCC(=O)N6)cc4C3)n2)ccn1` (stereo not drawn) [Compound 19, 5-[3-[4-(2-methoxy-4-pyridyl)-1H-imidazol-2-yl]chroman-6-yl]oxy-3,4-dihydro-1H-1,8-naphthyridin-2-one] were 23 µL/min/mg, 27.8 µL/min/mg, 1620 nM, 1100 nM and 1.5 % free.
The corresponding values for `O=C1CCc2c(Oc3ccc4c(c3)CC(c3nc5cc(C(F)(F)F)ccc5[nH]3)CO4)ccnc2N1` (stereo not drawn) [Compound 22, 5-[3-[6-(trifluoromethyl)-1H-benzimidazol-2-yl]chroman-6-yl]oxy-3,4-dihydro-1H-1,8-naphthyridin-2-one] are 25.1 µL/min/mg, 35.9 µL/min/mg, 20 nM, 120 nM and below 0.1 % free.
On to `O=C1CCc2c(Oc3ccc4c(c3)CC(c3nc5cc(F)c(F)cc5[nH]3)CO4)ccnc2N1` (stereo not drawn) [Compound 23], for which the microsomal CLint at 1 μM is 30.5 µL/min/mg in series [1] and 29.9 µL/min/mg in series [2]. For the same compound, the IC50 in series [3] was 257 nM; in series [4] (absolute IC50) it was 229 nM. The “mPPB (% free)” value in series [5] (setting [6]) amounted to 0.5 % free.
For `N#Cc1ccc2[nH]c(C3COc4ccc(Oc5ccnc6c5CCC(=O)N6)cc4C3)nc2c1` (stereo not drawn) [Compound 24], the figures for the intrinsic clearance (microsomal CLint) at 1 μM in series [1] and in series [2] were 41.6 µL/min/mg and 12.7 µL/min/mg, respectively. The IC50 is 562 nM in series [3] and 501 nM in series [4] (absolute IC50). Also, the “mPPB (% free)” value in series [5] (setting [6]) is recorded as 1.9 % free.
The corresponding values for `O=C1CCc2c(Oc3ccc4c(c3)CC(c3nc5cc(Cl)ccc5[nH]3)CO4)ccnc2N1` (stereo not drawn) [Compound 25] are 48.5 µL/min/mg, 50.1 µL/min/mg, 115 nM, 129 nM and 1.5 % free.
On to `COc1cc(-c2c[nH]c(C3COc4ccc(Oc5ccnc6c5CCC(=O)N6)cc4C3)n2)ccn1` (stereo not drawn) [Compound 104], for which the “MLM (CLint)” value in series [1] (37° C.) was 23 µL/min/mg. Further, the “HLM (CLint)” value in series [2] (37° C.) turned out to be 27.8 µL/min/mg. Besides, the “pERK WiDr (2 hr) Abs pIC50” value in series [4] (Abs) came out at 5.96. Besides, in series [5] (setting [7]), the “mPPB (% free)” value came out at 1.5 % free.
For `CC(C)(C)CCc1c[nH]c(C2COc3ccc(Oc4ccnc5c4CCC(=O)N5)cc3C2)n1` (stereo not drawn) [Compound 115, 5-[3-[4-(3,3-dimethylbutyl)-1H-imidazol-2-yl]chroman-6-yl]oxy-3,4-dihydro-1H-1,8-naphthyridin-2-one], the intrinsic metabolic clearance (microsomal CLint) at 1 μM in series [2] (37° C.) was 277 µL/min/mg. The IC50 is 13.8 nM in series [3] and 8.13 nM in series [4] (Abs). In addition, in series [5] (setting [7]), the “mPPB (% free)” value is 0.3 % free.
Consider `CC(C)CCc1c[nH]c(C2COc3ccc(Oc4ccnc5c4CCC(=O)N5)cc3C2)n1` (stereo not drawn) [Compound 116], for which, in series [2] (37° C.), the microsomal CLint at 1 μM stood at 277 µL/min/mg. Moreover, the IC50 was 46.8 nM in series [3] and 39.8 nM in series [4] (Abs). In addition, in series [5] (setting [7]), the “mPPB (% free)” value was found to be 0.23 % free.
Take `Cn1nc(C2CC2)cc1-c1c[nH]c(C2COc3ccc(Oc4ccnc5c4CCC(=O)N5)cc3C2)n1` (stereo not drawn) [Compound 125, 5-[3-[4-(5-cyclopropyl-2-methyl-pyrazol-3-yl)-1H-imidazol-2-yl]chroman-6-yl]oxy-3,4-dihydro-1H-1,8-naphthyridin-2-one]: the IC50 is 4470 nM in series [3] and 977 nM in series [4] (Abs).
Consider `O=C1CCc2c(Oc3ccc4c(c3)CC(c3nc(-c5ccc(C(F)(F)F)nc5)c[nH]3)CO4)ccnc2N1` (stereo not drawn) [Compound 127, 5-[3-[4-[6-(trifluoromethyl)-3-pyridyl]-1H-imidazol-2-yl]chroman-6-yl]oxy-3,4-dihydro-1H-1,8-naphthyridin-2-one], for which the intrinsic clearance (microsomal CLint) at 1 μM in series [1] (37° C.) was determined as 13.4 µL/min/mg; in series [2] (37° C.), 38.7 µL/min/mg. Besides, the IC50 in series [3] is 851 nM. Besides, the “mPPB (% free)” value in series [5] (setting [7]) is reported as 0.2 % free.
Take `O=C1CCc2c(Oc3ccc4c(c3)CC(c3nc(-c5cccnc5C(F)(F)F)c[nH]3)CO4)ccnc2N1` (stereo not drawn) [Compound 128, 5-[3-[4-[2-(trifluoromethyl)-3-pyridyl]-1H-imidazol-2-yl]chroman-6-yl]oxy-3,4-dihydro-1H-1,8-naphthyridin-2-one]: the IC50 in series [3] was 832 nM. Moreover, the “mPPB (% free)” value in series [5] (setting [7]) worked out at 1.2 % free.
`O=C(Nc1cc(Oc2ccc3c(c2)CC(c2nc(-c4ccccc4)c[nH]2)CO3)ccn1)C1(F)CC1` (stereo not drawn) [Compound 138]: in series [1] (37° C.), the “MLM (CLint)” value amounted to 277 µL/min/mg. Moreover, in series [2] (37° C.), the microsomal CLint at 1 μM is 134 µL/min/mg. Besides, the IC50 in series [3] was 1620 nM. Moreover, the “mPPB (% free)” value in series [5] (setting [7]) is reported as below 0.1 % free.
Taken in the same sequence, the figures for `O=C(Nc1cc(Oc2ccc3c(c2)CC(c2nc(-c4ccccc4)c[nH]2)CO3)ccn1)C1CC(F)(F)C1` (stereo not drawn) [Compound 139] were 277 µL/min/mg, 99.8 µL/min/mg, 1070 nM and below 0.1 % free.
